Laboratory results published in patent US20120329854A1, “Methods and Compounds for the Diagnosis and Treatment for Cancer” (UNIVERSITÄTSKLINIKUM FREIBURG, priority 2009, published 2012).
Entries after “also recorded” stand apart in the source; their conditions may differ.

Experiments:
Type in all cases: cell-based, human
[1] = tested on: AR, LSD1, PKCβI on AR-regulated genes; experiment: ChIP for occupancy of AR, LSD1 and PKCβI on AR target promoters in LNCaP cells
Method: (§1) ChIP and Re-ChIP experiments were performed as described^3. LNCaP cells were cultured for 15 min (ChIP) or 210 min (Re-ChIP) in the presence or absence of 1×10^−8M R1881 as indicated. Three days before harvesting, cells were transfected with siRNA (control for PKCβI: 5′-[…]-3′(SEQ ID NO 3); PKCβI: 5′-[…]-3′ (SEQ ID NO 4) (FIG. 3 b, c, f-i); control for PRK1: 5′-[…]-3′ (SEQ ID NO 14); PRK1: 5′-[…]-3′ (SEQ ID NO: 15) (FIG. 3 d, e); Invitrogen) using RNAifect (Qiagen) following the manufacturer's instructions. Immunoprecipitation was performed with specific antibodies (α-AR #06-680 lot 33529 (Upstate Biotechnology), α-H3K4me1 #ab8895 lot 535654, α-H3T6ph #ab14102 lot 481643, α-H3 #ab1791 lot 172452, α-PKCβI S660ph #ab23513 lot 596904 (Abcam), α-PKCβI (C-16) #sc-209 lot 481643, (Santa Cruz), α-H3K4me2 #cs-035-100 lot A391001 (Diagenode), α-PRK1^3, and α-LSD1^2) on protein A-Sepharose 4B (GE-Healthcare). For PCR, 2 μl out of 50 μl DNA extract was used. PCR primers for FKBP5 (+351/+443), KLK2 (−343/−90), SCN1A, SCN2A, GAPDH, and U6 were described previously^1, 2, 6, 11.

[2] = tested on: H3K4me2 and H3K4me1 at the KLK2 and FKBP5 promoters; experiment: ChIP with α-H3K4me2 and α-H3K4me1 antibodies in LNCaP cells
Method: as §1

AR = experiment: Western blot analysis of endogenous AR in LNCaP cells; conditions: siRNA transfection (FIG. 3c, 3e right panels)
Method: Experiments were performed as described^2. Western blots were decorated as indicated.

[3] = tested on: H3T6ph at the AREs of the KLK2 and FKBP5 promoters; experiment: ChIP with α-H3T6ph antibody in LNCaP cells; conditions: for androgen-induced phosphorylation of H3T6 at the AREs of the KLK2 and FKBP5 promoters upon knockdown: siRNA transfection three days before harvesting, 1×10^−8 M R1881, versus control siRNA
Method: as §1

[4] = tested on: PKCβI S660ph at the KLK2 and FKBP5 promoters; experiment: ChIP with α-PKCβI S660ph antibody in LNCaP cells
Method: as §1

Molecule | ligand-dependent recruitment of AR and presence of LSD1 on AR-regulated genes upon knockdown ([1]; siRNA transfection (FIG. 3b, c)) | H3K4me2 and H3K4me1 levels at the KLK2 and FKBP5 promoters upon knockdown ([2]; in the absence of R1881 (FIG. 3f, g)) | H3K4me2 and H3K4me1 levels at the KLK2 and FKBP5 promoters upon knockdown ([2]; in the presence of R1881 (FIG. 3f, g)) | levels of endogenous AR upon knockdown (AR) | androgen-induced phosphorylation of H3T6 at the AREs of the KLK2 and FKBP5 promoters upon knockdown [3] | presence of PKCβI on AR target promoters upon knockdown ([1]; siRNA transfection (FIG. 3d, e)) | ligand-dependent activation of PKCβI (S660ph) upon knockdown ([4]; siRNA transfection, with R1881 (FIG. 3d, e)) | levels of H3K4me2 and H3K4me1 at the KLK2 and FKBP5 promoters on addition of ligand ([2]; R1881 versus absence of ligand (FIG. 3f, g)) | phosphorylation at S660 of PKCβI at the KLK2 and FKBP5 promoters on addition of ligand ([4]; R1881 versus absence of ligand (FIG. 3b, c)) | phosphorylation of H3T6 at the AREs of the KLK2 and FKBP5 promoters on addition of ligand ([3]; 1×10^−8 M R1881 versus absence of ligand (FIG. 3b, c))
5′-CAUUGUCCUCGUAAGAGAUGCUAAA-3′ (listed as RNA, chemistry not given here) [siRNA directed against PKCβI] | does neither affect | Elevated levels | reduces H3K4me2 and H3K4me1 levels to those observed in the absence of R1881 | does not affect | blocked; also recorded: blunts | – | – | – | – | –
5′-GAACAUGAUCCAGACCUACAGCAAU-3′ (listed as RNA, chemistry not given here) [siRNA directed against PRK1, siRNA against Protein-kinase-C-related kinase 1 (PRK1), Invitrogen, reference compound] | – | – | – | does neither affect | abolished | does neither affect | blocked | – | – | –
C[C@]1(O)CC[C@H]2[C@@H]3CCC4=CC(=O)CCC4=C3C=C[C@@]21C [R1881, reference compound] | – | – | – | – | – | – | – | increased | androgen-induced phosphorylation at 5660 of PKCβI | results in phosphorylation of H3T6
